Assay results published in US12201626B2, “Bifunctional compositions for the treatment of cancer” (ARMACEUTICA, INC., priority 2018, dated 2025).
Read-outs that look alike come from different tables or passages of the source.

What was measured:
[1] = Differential Nuclear Staining (DNS) cytotoxicity assay, panel; type: cell-based; conditions: human, read-out: selective cytotoxicity index (SCI)
Description: (§1) In this study, 19 human cell lines were utilized: seven breast human cancer; MDA-MB-468, MCF-7, T47D, HCC1419, HCC70, MDA-MB-231 (triple negative) and its lung metastatic (LM) derivative MDA-MB-231 LM2; four human leukemia/lymphoma cells, HL-60, Ramos, Jurkat and CEM, three human ovarian cancer, Ovcar 8, Ovcar 5 and Ovcar 3, one lung cancer, one melanoma and one pancreatic cell line, A549, A375, Panc-1 respectively. Furthermore, for selectivity/comparative purposes, the cell lines from the non-cancerous origin, MCF-10A, HS-27 were also included. The culture media used for MDA-MB-231, MDA-MB-231 LM2, MDA-MB-468, MCF-7, A549, A375, Panc-1, and HS-27 was DMEM (Hyclone, Logan UT), whereas for T47D, HCC-1419, HCC-70, HL-60, Ramos, Jurkat, CEM, Ovcar 8 and Ovcar 5 was RPMI-1640 (Hyclone, Logan UT). Consistently, both DMEM and RPMI culture media was supplemented with 10% heat-inactivated fetal bovine serum (FBS: Hyclone), 100 U/ml penicillin and 100 μg/ml streptomycin (Thermo Fisher Scientific Inc., Rockford, IL). […] The adherent cells, growing in the logarithmic growth phase at a 60-75% confluence, were detached by utilizing a HyQtase enzyme (Thermo Fisher Scientific Inc.), counted and seeded in 96-well plates at 10,000 cells density in 100 μL of culture medium per well. […]
(§2) To analyze the potential cytotoxic activity of PND, the Differential Nuclear Staining (DNS) assay, which was validated for high-throughput screening (HTS) using live-cell bio-imaging was utilized. […] Montages of 2 by 2 images were captured directly from each individual well of the culture plates by using a multi-well plate reader IN Cell 2000 analyzer, an HTS and high-content analysis (HCA) system (GE Healthcare Life Sciences, Pittsburgh, PA). […] Each experimental data point, as well as controls, were assessed in triplicates. […]
(§3) The selective cytotoxicity index (SCI) denotes the capability of a given experimental compound to kill cancer cells more efficiently while inflicting minimal toxicity to non-cancerous origin cells. Thus, the SCI for PND was calculated as follow: SCI=CC50 of non-cancerous cells/CC50 of cancer cells.

[2] = tested on: panel of human cancer cell lines; experiment: as above; type: cell-based; conditions: Homo sapiens; 72 h, DNS assay; read-out: CC50 over all cancer cell lines tested
Description: as §1, §2, §3

HL-60 cells = experiment: Cell cycle profile and DNA fragmentation, DAPI flow cytometry; type: cell-based, human; conditions: 72 h
Description: (§4) Asynchronous cultures in the exponential growth phase of MDA-MB-231 and HL-60 cells in 24-well plates were treated with several doses of PND. After 72 h of incubation, cells were centrifuged and treated as in the previous section, fixed, permeabilized and stained with a DNA intercalating fluorophore, 4,6-Diamidino-2-phenylindole (DAPI); those three steps were accomplished by adding to the cells 200 μl of a single nuclear isolation medium (NIM)-DAPI solution (Beckman Coulter). The cell suspension was then incubated for an additional 3 min at room temperature in the dark. The controls included in the series of experiments were similar to those described for the above experiments. Approximately, 20,000 events/cells were collected per sample by using a flow cytometer equipped with a solid state 405 nm laser (Gallios; Beckman Coulter). The acquisition and distribution of cell subpopulations within each cell cycle facets were accomplished by utilizing Kaluza flow cytometry software (Beckman Coulter). Additionally, doublets were effectively eliminated by including a single cells gate in the acquisition cell cycle protocol.

MDA-MB-231 cells = experiment: as above; type: cell-based, human; conditions: 72 h
Description: as §4

Calf Thymus DNA = experiment: UV-Visible spectrophotometric titration; type: binding; conditions: PND 22.8 μM, Tris/HCl buffer, CT DNA additions
Description: UV-Visible measurements were taken in a Varian Cary 100 spectrophotometer. Calf Thymus (CT) DNA and buffers were purchased from Sigma Aldrich. The binding constant of PND with CT DNA was determined by absorption titration at room temperature through stepwise addition of a CT DNA solution (10.1 mM; 5 μL additions) in buffer (5 mM Tris/HCl, 50 mM NaCl, pH=7.39) over a 2 mL working solution of PND (22.8 μM) in the same buffer. Absorption spectra were recorded at 424 nm and the titration was terminated when saturation was reached. In order to determine the binding affinity, the data was fitted to the Scatchard equation r/Cf=K(n−r) (McGhee and von Hippel plots), where r is the number of moles of PND bound to 1 mol of CT DNA, n is the number of equivalent binding sites, and K is the affinity of the complex for those binding sites. Concentrations of free (Cf) and bound (Cb) complexes were calculated from Cf=C(1−α) and Cb=C−Cf, respectively, where C is the total PND concentration. The fraction of the bound complex (α) was calculated from α=(Af−A)/(Af−Ab), where Af and Ab are the absorbances of the free and fully bound drug at the selected wavelengths, and A is the absorbance at any given point during the titration. The plot of r/Cf vs. r gives the binding constant Kb as the slope of the graph. All experiments were performed in triplicate and values of Kb were averaged.

[3] = concentration-dependent, P<0.0005

## COC1=CC=C2Nc3cc(Cl)ccc3C(N=C3C=C(CN4CCCC4)C(=O)C(CN4CCCC4)=C3)=C2N1 [PND, 4-[(7-chloro-2-methoxy-1,5-dihydrobenzo[b][1,5]naphthyridin-10-yl)imino]-2,6-bis(pyrrolidin-1-ylmethyl)cyclohexa-2,5-dien-1-one]
[1]; leukemia/lymphoma cells
  selectivity ratio at 72 h: 1.43 to 3.47
[1]; several breast cancer cells vs non-cancerous cells
  selectivity ratio at 72 h: > 2.5
[2]
  CC50: 1.6 to 9.4 µM
HL-60 cells
  decrease of G0/G1 cell subpopulation: not observed
HL-60 cells; [3]
  DNA fragmentation (sub-G0/G1 subpopulation): significant increase
HL-60 cells; vs PBS and untreated controls
  S and G2/M subpopulations: decreased
MDA-MB-231 cells
  G0/G1 cell subpopulation: significant decrease
MDA-MB-231 cells; [3]
  DNA fragmentation (sub-G0/G1 subpopulation): significant increase
MDA-MB-231 cells; vs PBS and untreated controls
  S and G2/M subpopulations: decreased
Calf Thymus DNA
  hypochromic effect at 424 nm: 39%
  red-shift of absorbance maximum at 424 nm: 8 nm
